Broadly, the half-life is the time in which the quantity being followed falls by half.

Consider one compound from patent US6838557B1, “Process for making a chelating agent for labeling biomolecules using preformed active esters” (Board of Regents The University of Texas System, priority 2002, dated 2005).

The nature of this series: Stability of DOTA mono-NHS in water by 1H NMR (rate of change in the ratio Afree/Abound). It counts as physicochemical. Conditions: neutral pH, read-out: half-life for hydrolysis.

The structures appear in SMILES notation.

Source text: For example, ^1H NMR spectra, such as that illustrated in FIG. 1, were used to measure the ratio of the areas (Afree/Abound) of the ^1H NMR signal corresponding to NHS free in solution (δfree −2.6 ppm; Free NHS), relative to the signal corresponding to NHS covalently bound to DOTA (δbound −2.85 ppm; Bound NHS). […] Similar results were obtained by measuring the relative areas of the ^13C signals corresponding to free and bound NHS (δbound −25.5 ppm and δfree −25.2 ppm; FIG. 2).
Similar to that described above, the NMR data was used to estimate the percentage of free NHS. […] The stability of DOTA mono-NHS in water was also assessed using ^1H NMR by measuring the rate of change in the ratio Afree/Abound at neutral pH.

For `O=C(O)CN1CCN(CC(=O)O)CCN(CC(=O)ON2C(=O)CCC2=O)CCN(CC(=O)O)CC1` [DOTA mono-NHS, 1,4,7,10-tetraazacyclododecane-1,4,7,10-tetra(aceticacid)-10-mono(N-hydroxysuccinimidyl ester)], the half-life is approximately 30 min.
